According to patent US7148026B2, “Dog melanin-concentrating hormone receptor” (Merck & Co., Inc., priority 2000, dated 2006):

Test system: dog MCH receptor
Experiment: Aequorin bioluminescence assay in 293-AEQ17 cells transfected with dog MCH receptor
Assay type: cell-based
Conditions: 293-AEQ17 cells transfected with dog MCH receptor plasmid; fractional response of aequorin luminescence; read-out: EC50 value for activation of the dog MCH receptor
Method: Measurement of MCH receptor expression in the aequorin-expressing stable reporter cell line 293-AEQ17 (Button et al., 1993, Cell Calcium, 14, 663–671) was performed using a Luminoskan RT luminometer (Labsystems Inc., Gaithersburg, Md.) controlled by custom software written for a Macintosh PowerPC 6100. 293-AEQ17 cells (8×10^5 cells plated 18 hours before transfection in a T75 flask) were transfected with 22 μg of dog MCH receptor plasmid DNA: 264 μg lipofectamine.
Following approximately 40 hours of expression the apo-aequorin in the cells was charged for 4 hours with coelenterazine (10 μM) under reducing conditions (300 μM reduced glutathione) in ECB buffer (140 mM NaCl, 20 mM KCl, 20 mM HEPES-NaOH [pH=7.4], 5 mM glucose, 1 mM MgCl2, 1 mM CaCl2, 0.1 mg/ml bovine serum albumin). […] 100 μl of cell suspension (corresponding to 5×10^4 cells) was then injected into the test plate containing MCH, and the integrated light emission was recorded over 30 seconds, in 0.5 second units. 20 μL of lysis buffer (0.1% final Triton X-100 concentration) was then injected and the integrated light emission recorded over 10 seconds, in 0.5 second units.
The “fractional response” values for each well were calculated by taking the ratio of the integrated response to the initial challenge to the total integrated luminescence including the Triton X-100 lysis response. […]

Chain of dog MCH receptor (as listed by the source): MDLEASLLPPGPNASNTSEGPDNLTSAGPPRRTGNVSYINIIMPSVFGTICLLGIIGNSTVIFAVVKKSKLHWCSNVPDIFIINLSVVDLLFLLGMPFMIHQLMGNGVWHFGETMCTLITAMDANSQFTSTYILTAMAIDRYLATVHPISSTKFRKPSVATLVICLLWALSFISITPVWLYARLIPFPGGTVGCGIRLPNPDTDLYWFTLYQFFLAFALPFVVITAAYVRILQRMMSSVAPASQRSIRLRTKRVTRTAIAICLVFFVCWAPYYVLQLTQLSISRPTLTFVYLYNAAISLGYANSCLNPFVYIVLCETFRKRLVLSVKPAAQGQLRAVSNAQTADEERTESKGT

Melanin-concentrating hormone [MCH]
EC50: ~30 nM
